Like-named read-outs stand apart in the source and are kept apart here.
Tests used:
[1] = test system: mice; assay: Spontaneous activity in mice, compound in combination with 3 mg/kg Δ^9-THC (antagonism test); format: in vivo; details: for Max % inhibit of spontaneous locomotor activity, Compound with 3 mg/kg Δ^9-THC: at 0.3 mg/kg i.v.; for SA: maximum % antagonism of 3 mg/kg Δ^9-THC: analog 10 min before Δ^9-THC
Experimental: (§1) Male ICR mice (25-32 g), purchased from Harlan (Dublin, Va.), were housed in groups of five. All animals were kept in a temperature-controlled (20-22° C.) environment with a 12-hour light-dark cycle (lights on at 7 a.m.). Separate mice were used for testing each drug dose in the in vivo behavioral procedures. The mice were maintained on a […] light: dark cycle, and received food and water ad libitum. Brain tissue for binding studies was obtained from male Sprague-Dawley rats (150-200 g) purchased from Harlan Laboratories (Dublin, Va.).
(§2) Measurement of spontaneous activity in mice occurred in standard activity chambers interfaced with a Digiscan Animal Activity Monitor (Omnitech Electronics, Inc., Columbus, Ohio). A standard tail-flick apparatus (described by Dewey et al., 1970) and a digital thermometer (Fisher Scientific, Pittsburgh, Pa.) were used to measure antinociception and rectal temperature, respectively.
(§3) All drugs were administered to the mice intravenously (i.v.) in the tail vein at a volume of 0.1 ml/10 g.
(§4) Maximum latency of 10 sec was used.

[2] = test system: mice; assay: Spontaneous (locomotor) activity in mice, compound alone (agonism test); format: in vivo; details: for Max % inhibit of spontaneous locomotor activity, Compound Alone (in words: stimulation instead of inhibition): doses in mg/kg
Experimental: as §1, §2, §3, §4

[3] = test system: mice; assay: Tail-flick antinociception in mice, compound alone (agonism test); format: in vivo; details: for ED50: Mus musculus, iv
Experimental: as §1, §2, §3, §4

[4] = test system: mice; assay: Rectal temperature (hypothermia) in mice, compound alone (agonism test); format: in vivo; details: for ED50: Mus musculus, iv
Experimental: as §1, §2, §3, §4

[5] = molecular target: CB1 receptor (Rattus norvegicus, UniProt P20272); assay: biochemical; format: binding; details: for Ki: 1 nM [3H] CP 55,940, rat whole brain P2 membranes, 30° C. for 1 hr
Sequence of CB1 receptor (P20272 whole entry): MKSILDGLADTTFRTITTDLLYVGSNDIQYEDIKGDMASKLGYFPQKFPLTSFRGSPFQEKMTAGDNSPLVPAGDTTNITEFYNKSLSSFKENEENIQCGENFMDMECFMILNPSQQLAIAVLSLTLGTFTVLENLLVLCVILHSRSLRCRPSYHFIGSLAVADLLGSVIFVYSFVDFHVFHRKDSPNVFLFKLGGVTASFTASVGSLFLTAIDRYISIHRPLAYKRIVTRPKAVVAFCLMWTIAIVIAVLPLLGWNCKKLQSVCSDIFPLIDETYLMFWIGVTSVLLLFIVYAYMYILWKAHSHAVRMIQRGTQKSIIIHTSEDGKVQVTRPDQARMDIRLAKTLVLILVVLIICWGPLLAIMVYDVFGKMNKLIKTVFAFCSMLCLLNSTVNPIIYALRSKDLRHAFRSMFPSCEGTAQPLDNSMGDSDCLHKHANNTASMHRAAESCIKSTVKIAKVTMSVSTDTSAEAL
Experimental: as §1
All assays, as described briefly below, were performed in triplicate, and the results represent the combined data from three to six individual experiments. Following decapitation and rapid removal of the brain, whole brain was homogenized and centrifuged. The resulting pellet was termed P1. The supernatant was saved and combined with the two subsequent supernatants obtained from washing of the P1 pellet. The combined supernatant fractions were centrifuged, resulting in the P2 pellet. After further incubation and centrifuging, this pellet was resuspended in assay buffer to a protein concentration of approximately 2 mg/ml. The membrane preparation was quickly frozen in a bath solution of dry ice and 2-methylbutane (Sigma Chemical Co., St. Louis, Mo.), then stored at −80° C. for no more than 2 weeks. […] Binding was initiated by the addition of 150 μg of P2 membrane to test tubes containing 1 nM of [3H] […] Following incubation at 30° C. for 1 hr, binding was terminated by addition of ice-cold buffer and vacuum filtration through pretreated filters in a 12-well sampling manifold (Millipore, Bedford, Mass.). After washing, filters were placed into plastic scintillation vials (Packard, Downer Grove, Ill.) and shaken. The quantity of radioactivity present was determined by liquid scintillation spectrometry.

[6] = test system: mice; assay: Rectal temperature in mice, compound in combination with 3 mg/kg Δ^9-THC (antagonism test); format: in vivo; details: at 10 mg/kg i.v.
Experimental: as §1, §2, §3, §4

[7] = test system: mice; assay: Tail-flick antinociception in mice, compound in combination with 3 mg/kg Δ^9-THC (antagonism test); format: in vivo; details: at 30 mg/kg i.v.
Experimental: as §1, §2, §3, §4

[8] = Mus musculus, iv, mice, i.v., read-out: SA: > dose, 50% activity not achieved at this highest dose tested
[9] = read-out: TF: > dose, 50% activity not achieved at this highest dose tested
[10] = read-out: RT: > dose, 50% activity not achieved at this highest dose tested
[11] = Mus musculus, iv, at 30 mg/kg i.v., read-out: Max stim of spontaneous locomotor activity, Compound Alone
[12] = at the dose(s) [mg/kg] given in parentheses in the cell

| Compound | Max % inhibit of spontaneous locomotor activity, Compound with 3 mg/kg Δ^9-THC [1] | Max stim of spontaneous locomotor activity, Compound with 3 mg/kg Δ^9-THC ([1]; at 30 mg/kg i.v.) | ED50 [2, 8] [mg/kg] | ED50 [3, 9] [mg/kg] | ED50 [4, 10] [mg/kg] | Ki ([5]; Ki (nM)) [nM] | Max % inhibit of spontaneous locomotor activity, Compound Alone (in words: stimulation instead of inhibition) [2] | change in vivo at 30 mg/kg [2, 11] [%] | Ki ([5]; read-out: Ki) [nM] | other results |
| --- | --- | --- | --- | --- | --- | --- | --- | --- | --- | --- |
| CCCCCc1ccc(-c2c(C)c(C(=O)NN3CCCCC3)nn2-c2ccc(Cl)cc2Cl)cc1 [Compound O-1302, N-(Piperidin-1-yl)-1-(2,4-dichlorophenyl)-4-methyl-5-(4-pentylphenyl)-1H-pyrazole-3-carboxamide] | 74% (0.3) | 107% (30) | > 30 | > 30 | > 30 | 2.1 ± 0.08 | – | – | – | SA: maximum % antagonism of 3 mg/kg Δ^9-THC ([1]; at 1 mg/kg i.v.): 91% (1); inhibition in vivo at 3 mg/kg ([2]; Mus musculus, iv, at 3 mg/kg i.v., read-out: Max % inhibit of spontaneous locomotor activity, Compound Alone): 26%; change in vivo at 10 mg/kg ([2]; Mus musculus, iv, at 10 mg/kg i.v., read-out: Max stim of spontaneous locomotor activity, Compound Alone): 2%; CB1 receptor binding affinity, fold greater than SR 141716A ([5]; compared to SR 141716A): approximately 3 fold |
| Cc1c(COCc2cccc3ccccc23)nn(-c2ccc(Cl)cc2Cl)c1-c1ccc(Cl)cc1 [Compound O-852] | – | – | > 10 | > 10 | > 10 | 78 ± 10 | stim at 1, 3 & 10 | – | – | change in vivo at 1 mg/kg ([2]; Mus musculus, iv, at 1 mg/kg i.v., read-out: Max stim of spontaneous locomotor activity, Compound Alone): 52%; stimulation of locomotor activity ([2]; compound alone, dose not given (see Table 5)): 52% |
| CCCCC(C)c1c(C)c(C(=O)NN2CCCCC2)nn1-c1ccc(Cl)cc1Cl (centres unmarked) [Compound O-1559] | – | – | > 30 | > 30 | > 30 | – | stim at 3, 10 & 30 | 118 | 233 | – |
| CCCCc1ccc(-n2nc(C(=O)NN3CCCCC3)c(C)c2-c2ccc(Cl)cc2)cc1 [Compound O-1254] | – | 13% (30) | > 30 | > 30 | > 30 | 226 ± 4 | stim at 3, 10 & 30 | 29 | – | SA: maximum % antagonism of 3 mg/kg Δ^9-THC (in words) [1, 12]: stimulation; Max % inhibit of spontaneous locomotor activity, Compound with 3 mg/kg Δ^9-THC (in words) ([1]; doses in mg/kg): stim at 10; RT: maximum % antagonism of 3 mg/kg Δ^9-THC [6]: 31% (10); % MPE: maximum % antagonism of 3 mg/kg Δ^9-THC [7]: 52% (30) |
| N-(N-Piperdyl)-3-(2,4-dichlrophenyl)-4-(4″-pentylphenyl)-5-iodopyrazole-carboxamide [Compound O-1704] | 85% (0.3) | – | – | – | – | – | – | – | 2.2 | SA: maximum % antagonism of 3 mg/kg Δ^9-THC ([1]; at 3 mg/kg i.v.): 65% (3); Max stim of spontaneous locomotor activity, Compound with 3 mg/kg Δ^9-THC ([1]; at 10 mg/kg i.v.): 49% (10); Max stim of spontaneous locomotor activity, Compound Alone ([2]; at 1 mg/kg i.v.): 57% (1); Max % inhibit of spontaneous locomotor activity, Compound Alone ([2]; at 30 mg/kg i.v.): 19% (30); SA: > dose, 50% activity not achieved at this highest dose tested ([2]; mice, i.v.): >30 mg/kg; TF: > dose, 50% activity not achieved at this highest dose tested ([3]; i.v.): >30 mg/kg; RT: > dose, 50% activity not achieved at this highest dose tested ([4]; i.v.): >30 mg/kg |
| CCCNC(=O)c1nn(-c2ccc(Cl)cc2Cl)c(-c2ccc(Cl)cc2)c1C [Compound O-1399, N-(n-propyl)-5-(4-chlorophenyl)-1-(2,4-dichlorophenyl)-4-methyl-1H-pyrazole-3-carboxamide] | – | – | – | – | – | 167 ± 32 | – | – | – | inhibition in vivo at 30 mg/kg ([2]; Mus musculus, iv, at 30 mg/kg i.v., read-out: Max % inhibit of spontaneous locomotor activity, Compound Alone): 100%; ED50 ([2]; Mus musculus, iv, mice, i.v., 95% confidence limits in parentheses, * = estimated ED50, dose-effect curve not linear, read-out: SA (suppression of spontaneous activity) ED50): 9 µmol/kg; Max stim of spontaneous locomotor activity, Compound Alone (in words) [2, 12]: None (3, 10 & 30); ED50 ([3]; 20 min, i.v., 20 min post-injection, 95% confidence limits in parentheses, * = estimated ED50, dose-effect curve not linear, read-out: TF (tail flick, % MPE) ED50): 24 µmol/kg; ED50 ([4]; 0.5 h, i.v., 30 min post-injection, 95% confidence limits in parentheses, read-out: RT (rectal temperature) ED50): 10 µmol/kg; CB1 binding affinity, fold decrease on shortening the n-pentyl amide ([5]; compared to O-1269): 5 fold |

Reference: US6509367B1 (priority 2001, dated 2003)
